Results reported in patent publication US9777000B2, “Pyrazole derivative” (MOCHIDA PHARMACEUTICAL CO., LTD., priority 2013, dated 2017).

These compounds were tested against human PDE10 (Homo sapiens (Human), UniProt Q9Y233) (assay: Evaluation of enzyme inhibitory activity: human PDE10 inhibitory effect (IMAP TR-FRET)). Details: cAMP substrate.
Type: biochemical
Description: (Evaluation of Enzyme Inhibitory Activity: Human PDE10 Inhibitory Effect)
IMAP TR-FRET Phosphodiersterase Evaluation Assay Kit (Molecular Device) was used for the measurement. Ten μL of a diluted test compound having each concentration and 5 μL of the enzyme PDE10 (BPA Bioscience) that had been diluted to 2 ng/mL with 1×IMAP Reaction Buffer (prepared with 5×included with the kit, 10 mM Tris-HCl, pH=7.2, 10 mM MgCl2, 0.05% NaN3, and 0.1% BSA) containing 0.1% BSA were added to a 384-well plate (Corning). The obtained mixture was then pre-incubated at room temperature for 5 minutes. Thereafter, 5 μL of cAMP substrate solution which was included with the kit and diluted to 400 nM with 1×IMAP Reaction Buffer containing 0.1% BSA, was added to the reaction solution, and the obtained mixture was reacted at room temperature for 60 minutes. Thereafter, 60 μL of an IMAP TR-FRET Binding solution included with the kit was further added to the reaction solution, and the obtained mixture was then left for 3 hours or more. Subsequently, using ARVO SX (PerkinElmer), the fluorescent intensity of Terbium (Emission=490 nm) and TR-FRET (Emission=520 nm) in the reaction solution were measured at an excitation wavelength of 340 nm, so as to calculate the amount of the generated 5′-AMP. The count of a well to which a solvent had been added instead of the test compound was set at 0%, and the count of a well to which the enzyme PDE10 had not been added was set at 100%. Thus, the inhibitory activity of each test compound was calculated.
The PDE10 inhibitory activity of the test compound was indicated with an IC50 value. […] The test compounds are shown in Table 3 (Table 3-1 and Table 3-2).

Sequence of human PDE10 (Q9Y233 whole entry): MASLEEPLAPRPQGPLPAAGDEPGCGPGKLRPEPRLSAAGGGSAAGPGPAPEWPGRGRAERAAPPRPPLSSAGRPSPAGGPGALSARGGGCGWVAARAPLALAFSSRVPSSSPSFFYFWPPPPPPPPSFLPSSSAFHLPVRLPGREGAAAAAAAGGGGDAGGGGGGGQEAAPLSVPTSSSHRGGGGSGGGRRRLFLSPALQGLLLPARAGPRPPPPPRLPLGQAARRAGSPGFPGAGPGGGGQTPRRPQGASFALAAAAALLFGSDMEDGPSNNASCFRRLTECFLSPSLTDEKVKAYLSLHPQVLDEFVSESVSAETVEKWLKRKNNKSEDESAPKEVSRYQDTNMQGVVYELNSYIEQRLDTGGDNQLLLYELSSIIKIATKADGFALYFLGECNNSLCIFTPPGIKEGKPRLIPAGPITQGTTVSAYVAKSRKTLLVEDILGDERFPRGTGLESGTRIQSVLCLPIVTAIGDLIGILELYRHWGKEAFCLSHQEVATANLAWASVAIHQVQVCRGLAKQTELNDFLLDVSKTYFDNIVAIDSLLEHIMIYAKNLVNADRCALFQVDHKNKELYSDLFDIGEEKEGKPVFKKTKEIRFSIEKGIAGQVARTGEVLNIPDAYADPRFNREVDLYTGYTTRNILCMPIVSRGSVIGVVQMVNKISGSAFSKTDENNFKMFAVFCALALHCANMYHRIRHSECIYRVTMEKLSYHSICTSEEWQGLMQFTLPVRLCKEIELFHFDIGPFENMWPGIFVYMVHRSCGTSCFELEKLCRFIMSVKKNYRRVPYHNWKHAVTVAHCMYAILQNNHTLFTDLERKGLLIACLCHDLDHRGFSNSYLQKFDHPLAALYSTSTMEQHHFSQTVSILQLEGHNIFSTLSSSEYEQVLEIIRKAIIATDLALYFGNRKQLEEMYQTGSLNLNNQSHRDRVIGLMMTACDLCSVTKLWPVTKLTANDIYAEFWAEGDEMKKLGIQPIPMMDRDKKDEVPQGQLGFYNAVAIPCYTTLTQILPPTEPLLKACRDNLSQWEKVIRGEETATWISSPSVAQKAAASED

IC50, < 5 nM:
COc1ncc(F)c(-c2cnn(C)c2C(=O)Nc2cc3nc(-c4ccccc4)nn3cc2F)n1 [Example 3.27, 4-(5-fluoro-2-methoxypyrimidin-4-yl)-N-(6-fluoro-2-phenyl-[1,2,4]triazolo[1,5-a]pyridin-7-yl)-1-methyl-1H-pyrazole-5-carboxamide]
Cc1cc(-c2cnn(C)c2C(=O)Nc2cc3nc(-c4ccccc4)nn3cc2F)ncn1 [Example 3.39, N-(6-fluoro-2-phenyl-[1,2,4]triazolo[1,5-a]pyridin-7-yl)-1-methyl-4-(6-methylpyrimidin-4-yl)-1H-pyrazole-5-carboxamide]
Cc1ncc(C)c(-c2cnn(C)c2C(=O)Nc2cc3nc(-c4cccnc4)nn3cc2F)n1 [Example 3.49, 4-(2,5-dimethylpyrimidin-4-yl)-N-(6-fluoro-2-(pyridin-3-yl)-[1,2,4]triazolo[1,5-a]pyridin-7-yl)-1-methyl-1H-pyrazole-5-carboxamide]
Cc1sc(-c2cnn(C)c2C(=O)NC2CCn3nc(-c4ccc(F)cc4)nc3C2)nc1C(F)F (stereo not shown) [Example 5.36, 4-(4-(difluoromethyl)-5-methylthiazol-2-yl)-N-(2-(4-fluorophenyl)-5,6,7,8-tetrahydro-[1,2,4]triazolo[1,5-a]pyridin-7-yl)-1-methyl-1H-pyrazole-5-carboxamide]
COc1cncnc1-c1cnn(C)c1C(=O)Nc1cc2nc(-c3ccccc3)nn2cc1F [Example 3.34, N-(6-fluoro-2-phenyl-[1,2,4]triazolo[1,5-a]pyridin-7-yl)-4-(5-methoxypyrimidin-4-yl)-1-methyl-1H-pyrazole-5-carboxamide]
Cn1ncc(-c2ncccc2C#N)c1C(=O)Nc1cc2nc(-c3ccccc3)nn2cc1F [Example 3.13, 4-(3-cyanopyridin-2-yl)-N-(6-fluoro-2-phenyl-[1,2,4]triazolo[1,5-a]pyridin-7-yl)-1-methyl-1H-pyrazole-5-carboxamide]
Cn1ncc(-c2ccc(F)cn2)c1C(=O)Nc1cc2nc(-c3ccccc3)nn2cc1F [Example 3.8, N-(6-fluoro-2-phenyl-[1,2,4]triazolo[1,5-a]pyridin-7-yl)-4-(5-fluoropyridin-2-yl)-1-methyl-1H-pyrazole-5-carboxamide]
Cc1nc(-c2cnn(C)c2C(=O)NC2CCn3nc(N4CCCC4)nc3C2)sc1C (stereo not shown) [Example 5.45, 4-(4,5-dimethylthiazol-2-yl)-1-methyl-N-(2-(pyrrolidin-1-yl)-5,6,7,8-tetrahydro-[1,2,4]triazolo[1,5-a]pyridin-7-yl)-1H-pyrazole-5-carboxamide]
Cc1ncc(C)c(-c2cnn(C)c2C(=O)Nc2cc3nc(-c4ccccc4)nn3cc2F)n1 [Example 3.22, 4-(2,5-dimethylpyrimidin-4-yl)-N-(6-fluoro-2-phenyl-[1,2,4]triazolo[1,5-a]pyridin-7-yl)-1-methyl-1H-pyrazole-5-carboxamide]
C=Cc1sc(-c2cnn(C)c2C(=O)NC2CCn3nc(-c4ccccc4)nc3C2)nc1C(F)F (stereo not shown) [Example 5.5, 4-(4-(difluoromethyl)-5-vinylthiazol-2-yl)-1-methyl-N-(2-phenyl-5,6,7,8-tetrahydro-[1,2,4]triazolo[1,5-a]pyridin-7-yl)-1H-pyrazole-5-carboxamide]
Cc1cc(C)nc(-c2cnn(C)c2C(=O)Nc2cc3nc(-c4ccccc4)nn3cc2F)c1 [Example 3.11, 4-(4,6-dimethylpyridin-2-yl)-N-(6-fluoro-2-phenyl-[1,2,4]triazolo[1,5-a]pyridin-7-yl)-1-methyl-1H-pyrazole-5-carboxamide]
Cc1sc(-c2cnn(C)c2C(=O)Nc2ccn3nc(N4CC[C@H](F)C4)nc3c2)nc1C(F)F [Example 4.23, (S)-4-(4-(difluoromethyl)-5-methylthiazol-2-yl)-N-(2-(3-fluoropyrrolidin-1-yl)-[1,2,4]triazolo[1,5-a]pyridin-7-yl)-1-methyl-1H-pyrazole-5-carboxamide]
Cc1cc(C)nc(-c2cnn(C)c2C(=O)Nc2ccn3nc(N4CCC[C@@H]4C)nc3c2)c1 [Example 4.8, (S)-4-(4,6-dimethylpyridin-2-yl)-1-methyl-N-(2-(2-methylpyrrolidin-1-yl)-[1,2,4]triazolo[1,5-a]pyridin-7-yl)-1H-pyrazole-5-carboxamide]
Cc1sc(-c2cnn(C)c2C(=O)Nc2ccn3nc(N4CCCC4)nc3c2)nc1C(F)F [Example 4.33, 4-(4-(difluoromethyl)-5-methylthiazol-2-yl)-1-methyl-N-(2-(pyrrolidin-1-yl)-[1,2,4]triazolo[1,5-a]pyridin-7-yl)-1H-pyrazole-5-carboxamide]
Cn1ncc(-c2nc(C(F)(F)F)cs2)c1C(=O)Nc1ccn2cc(-c3ccccc3)nc2c1 [Example 1.5, 1-methyl-N-(2-phenylimidazo[1,2-a]pyridin-7-yl)-4-(4-(trifluoromethyl)thiazol-2-yl)-1H-pyrazole-5-carboxamide]
Cc1cnc(-c2cnn(C)c2C(=O)NC2CCn3cc(-c4ccccc4)nc3C2)s1 (stereo not shown) [Example 2.15, 1-methyl-4-(5-methylthiazol-2-yl)-N-(2-phenyl-5,6,7,8-tetrahydroimidazo[1,2-a]pyridin-7-yl)-1H-pyrazole-5-carboxamide]
Cc1cc(C)nc(-c2cnn(C)c2C(=O)Nc2ccn3nc(N4CCCC4)nc3c2)c1 [Example 4.32, 4-(4,6-dimethylpyridin-2-yl)-1-methyl-N-(2-(pyrrolidin-1-yl)-[1,2,4]triazolo[1,5-a]pyridin-7-yl)-1H-pyrazole-5-carboxamide]
COc1ncnc(-c2cnn(C)c2C(=O)Nc2cc3nc(-c4ccccc4)nn3cc2F)c1C [Example 3.31, N-(6-fluoro-2-phenyl-[1,2,4]triazolo[1,5-a]pyridin-7-yl)-4-(6-methoxy-5-methylpyrimidin-4-yl)-1-methyl-1H-pyrazole-5-carboxamide]
COc1ccccc1-c1nc2cc(NC(=O)c3c(-c4nc(C(F)F)cs4)cnn3C)ccn2n1 [Example 3.16, 4-(4-(difluoromethyl)thiazol-2-yl)-N-(2-(2-methoxyphenyl)-[1,2,4]triazolo[1,5-a]pyridin-7-yl)-1-methyl-1H-pyrazole-5-carboxamide]
COc1ccnc(-c2cnn(C)c2C(=O)Nc2cc3nc(-c4ccccc4)nn3cc2F)c1 [Example 3.52, N-(6-fluoro-2-phenyl-[1,2,4]triazolo[1,5-a]pyridin-7-yl)-4-(4-methoxypyridin-2-yl)-1-methyl-1H-pyrazole-5-carboxamide]
Cc1ccnc(-c2cnn(C)c2C(=O)Nc2ccn3nc(N4CC[C@H](F)C4)nc3c2)c1 [Example 4.17, (S)-N-(2-(3-fluoropyrrolidin-1-yl)-[1,2,4]triazolo[1,5-a]pyridin-7-yl)-1-methyl-4-(4-methylpyridin-2-yl)-1H-pyrazole-5-carboxamide]
Cn1ncc(-c2nc(C(F)F)cs2)c1C(=O)Nc1ccn2cc(-c3ccccc3)nc2c1 [Example 1.3, 4-(4-(difluoromethyl)thiazol-2-yl)-1-methyl-N-(2-phenylimidazo[1,2-a]pyridin-7-yl)-1H-pyrazole-5-carboxamide]
C[C@@H]1CN(c2nc3cc(NC(=O)c4c(-c5nc(C(F)F)cs5)cnn4C)ccn3n2)C[C@H](C)O1 [Example 3.19, 4-(4-(difluoromethyl)thiazol-2-yl)-N-(2-((2S,6R)-2,6-dimethylmorpholino)-[1,2,4]triazolo[1,5-a]pyridin-7-yl)-1-methyl-1H-pyrazole-5-carboxamide]
Cn1ncc(-c2nc(C(F)F)cs2)c1C(=O)Nc1ccn2nc(N3CCCC3)nc2c1 [Example 4.25, 4-(4-(difluoromethyl)thiazol-2-yl)-1-methyl-N-(2-(pyrrolidin-1-yl)-[1,2,4]triazolo[1,5-a]pyridin-7-yl)-1H-pyrazole-5-carboxamide]
Cc1sc(-c2cnn(C)c2C(=O)Nc2ccn3nc(N4CCC[C@@H]4C)nc3c2)nc1C(F)F [Example 4.9, (S)-4-(4-(difluoromethyl)-5-methylthiazol-2-yl)-1-methyl-N-(2-(2-methylpyrrolidin-1-yl)-[1,2,4]triazolo[1,5-a]pyridin-7-yl)-1H-pyrazole-5-carboxamide]
Cc1ccnc(-c2cnn(C)c2C(=O)Nc2ccn3nc(N4CCC[C@@H]4C)nc3c2)c1 [Example 4.4, (S)-1-methyl-4-(4-methylpyridin-2-yl)-N-(2-(2-methylpyrrolidin-1-yl)-[1,2,4]triazolo[1,5-a]pyridin-7-yl)-1H-pyrazole-5-carboxamide]
(R)-N-(6-fluoro-2-(2trifluoromethyl)pyrrolidin-1-yl)-[1,2,4]triazolo[1,5-a]pyridin-7-yl)-1-methyl-4-(6-methylpyridin-2-yl)-1H-pyrazole-5-carboxamide [Example 4.11]
COc1ccccc1-c1nc2n(n1)CCC(NC(=O)c1c(-c3nc(C(F)F)cs3)cnn1C)C2 (stereo not shown) [Example 5.34, 4-(4-(difluoromethyl)thiazol-2-yl)-N-(2-(2-methoxyphenyl)-5,6,7,8-tetrahydro-[1,2,4]triazolo[1,5-a]pyridin-7-yl)-1-methyl-1H-pyrazole-5-carboxamide]
